The test system of experiment [1] is MCF7. Put plainly: Antiproliferative activity against human MCF7 cells incubated for 5 days by MTT assay. The note with it: MCF7, 120 h. The class given is functional, cell-based. For orientation: Tetrazolium dyes change colour on reduction, which living cells bring about.
For a further experiment, the system named is Ishikawa. Description: Antiproliferative activity against human Ishikawa cells at 20 uM incubated for 3 days by MTT assay relative to control. It is filed as functional. The note with it: 72 h, time 3 day.
In experiment [2] the target is T1, Estrogen receptor (Homo sapiens) (UniProt P03372).
T1 sequence (whole entry): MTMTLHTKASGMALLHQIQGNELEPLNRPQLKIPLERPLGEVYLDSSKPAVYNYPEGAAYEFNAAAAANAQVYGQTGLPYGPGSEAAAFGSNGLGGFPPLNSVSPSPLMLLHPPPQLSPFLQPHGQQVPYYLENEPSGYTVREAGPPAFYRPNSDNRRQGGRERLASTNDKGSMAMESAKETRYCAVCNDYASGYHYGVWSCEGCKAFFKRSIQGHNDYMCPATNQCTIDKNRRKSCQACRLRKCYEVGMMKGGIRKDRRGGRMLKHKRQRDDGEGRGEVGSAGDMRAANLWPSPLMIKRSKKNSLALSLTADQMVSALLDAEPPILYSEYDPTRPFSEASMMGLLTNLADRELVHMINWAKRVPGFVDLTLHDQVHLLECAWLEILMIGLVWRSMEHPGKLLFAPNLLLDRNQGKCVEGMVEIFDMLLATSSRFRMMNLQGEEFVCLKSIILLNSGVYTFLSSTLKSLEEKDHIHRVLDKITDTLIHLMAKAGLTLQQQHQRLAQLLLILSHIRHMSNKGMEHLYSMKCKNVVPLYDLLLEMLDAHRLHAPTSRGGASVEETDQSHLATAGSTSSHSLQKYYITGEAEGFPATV
Description: Induction of estrogen receptor degradation in estradiol-stimulated human MCF7 cells assessed as decrease in GREB1 mRNA level incubated for 24 hrs by RT-qPCR analysis. It is filed as cell-based. The note with it: dose 1-10 µM. A general note: In qPCR the cycle at which signal appears reflects the starting amount.

Experiment [3] has as its target T1, Estrogen receptor (Homo sapiens). Put plainly: Induction of estrogen receptor degradation in estradiol-stimulated human MCF7 cells assessed as decrease in TFF1 mRNA level incubated for 24 hrs by RT-qPCR analysis. The class given is cell-based. The note with it: dose 1-10 µM.
For experiment [4] the target is unchanged. Description: Induction of estrogen receptor degradation in estradiol-stimulated human MCF7 cells assessed as decrease in PGR mRNA level incubated for 24 hrs by RT-qPCR analysis. The note with it: dose 1-10 µM. It is filed as cell-based.
Experiment [5] has as its system MCF7. Description: Induction of ROS production in human MCF7 cells incubated for 3 to 24 hrs by immunofluorescence analysis. The class given is functional, cell-based. The note with it: time 3-24 hrs.
Experiment [6] deals with MCF7. Description: Induction of cell cycle arrest at G0/G1 phase in human MCF7 cells at 10 uM incubated for 24 hrs by PI/RNase staining based flow cytometry (reference value: 53.5 +/- 1.96 %). It is filed as functional. (In general: In flow cytometry, cells or beads pass a laser one at a time.)

Calls of active or inactive are those of the source. No cut-off for these calls is given here.

A word on the IC50: it is the concentration that gives 50% inhibition. In general, inhibition refers to the change of the read-out against control, counted positive when it falls. In turn, `O=C(O)/C=C/c1ccc(Oc2c(C(=O)c3ccccc3)cnc3cc(O)ccc23)cc1` gave an IC50 in the experiment with MCF7 [1] of 1.67 µM. Besides, the inhibition at 20 µM in the experiment on Ishikawa is 11.8%.
In the same order, the values of `O=C(O)/C=C/c1ccc(Oc2c(C(=O)c3ccc(F)cc3)cnc3cc(O)ccc23)cc1` are 4.87 µM and 12.5%.
For `O=C(O)/C=C/c1ccc(Oc2c(C(=O)c3cccc(F)c3)cnc3cc(O)ccc23)cc1` the same measures were 2.42 µM and 26.4%.
In the same order, the values of `O=C(O)/C=C/c1ccc(Oc2c(C(=O)c3ccc(OC(F)(F)F)cc3)cnc3cc(O)ccc23)cc1` are 1.36 µM and 20.4%.
Take `Cc1cccc(C)c1C(=O)c1cnc2cc(O)ccc2c1Oc1ccc(/C=C/C(=O)O)cc1`: in the experiment on MCF7 [1], the IC50 turned out to be 0.93 µM. Besides, the inhibition at 20 µM in the experiment with Ishikawa stood at 23.1%.
In the experiment with MCF7 [1], `O=C(O)/C=C/c1ccc(Oc2c(C(=O)c3ccccc3C(F)(F)F)cnc3cc(O)ccc23)cc1` yielded an IC50 of 0.37 µM. For the same compound, the inhibition at 20 µM with Ishikawa was 27.5%.
For `CC(C)c1ccccc1C(=O)c1cnc2cc(O)ccc2c1Oc1ccc(/C=C/C(=O)O)cc1` the same measures were 0.58 µM and 23.8%.
In the same order, the values of `Cc1cc(C)cc(C(=O)c2cnc3cc(O)ccc3c2Oc2ccc(/C=C/C(=O)O)cc2)c1` are 4.8 µM and 30.9%.
`CCc1ccccc1C(=O)c1cnc2cc(O)ccc2c1Oc1ccc(/C=C/C(=O)O)c(C)c1` had an IC50 with MCF7 [1] of 3.57 µM. For the same compound, the inhibition at 20 µM in the experiment on Ishikawa came out at 13.4%.
For `Cc1cc(F)cc(C)c1C(=O)c1cnc2cc(O)ccc2c1Oc1ccc(/C=C/C(=O)O)cc1` the same measures were 0.41 µM and 35.8%.
In the case of `CCc1ccccc1C(=O)c1cnc2cc(O)ccc2c1Oc1ccc(/C=C/C(=O)O)cc1C`, the Activity entry in experiment [2], in experiment [3] and in experiment [4] was “Dose-Dependent Effect” each time. The midpoint of inhibition in the experiment with MCF7 [1], the IC50, lay at 0.45 µM. The inhibition at 20 µM in the experiment with Ishikawa is -6.14%.
With `CCc1ccccc1C(=O)c1cnc2cc(O)ccc2c1Oc1ccc(/C=C/C(=O)O)cc1OC`, it took 14.1 µM to reach half-maximal inhibition in the experiment with MCF7 [1] (IC50). The inhibition at 20 µM with Ishikawa is 5.03%.
The compound `Cc1cc(Cl)ccc1C(=O)c1cnc2cc(O)ccc2c1Oc1ccc(/C=C/C(=O)O)cc1` had a half-inhibitory concentration (IC50) with MCF7 [1] of 0.37 µM. The inhibition at 20 µM in the experiment on Ishikawa amounted to 24.9%.
For `O=C(O)/C=C/c1ccc(Oc2c(C(=O)c3cccs3)cnc3cc(O)ccc23)cc1`, it took 7.17 µM to reach half-maximal inhibition in the experiment on MCF7 [1] (IC50). Besides, the inhibition at 20 µM in the experiment on Ishikawa worked out at 10.4%.
Regarding `CC/C(=C(\c1ccccc1)c1ccc(OCCN(C)C)cc1)c1ccccc1` [TAMOXIFEN], in the experiment on MCF7 [1], the midpoint of inhibition, the IC50, lay at 1.56 µM. The result in the experiment on MCF7 [5] was inactive. In addition, the inhibition at 20 µM in the experiment with Ishikawa amounted to 86.5%. In the experiment with MCF7 [6], this compound showed an Activity of 67.6%.
`O=C(O)/C=C/c1ccc(Oc2c(C(=O)c3ccc(C(F)(F)F)cc3)cnc3cc(O)ccc23)cc1`: in the experiment with MCF7 [1], the IC50 was determined as 0.69 µM. Besides, the inhibition at 20 µM in the experiment with Ishikawa was -4.35%.
As for `C[C@]12CC[C@@H]3c4ccc(O)cc4CC[C@H]3[C@@H]1CC[C@@H]2O`, the result with MCF7 [5] was inactive.
`O=C(O)/C=C/c1ccc(Oc2c(C(=O)c3ccc4occc4c3)cnc3cc(O)ccc23)cc1` yielded an IC50 in the experiment with MCF7 [1] of 1.47 µM. The inhibition at 20 µM in the experiment on Ishikawa stood at 13.3%.
Compound `CCc1ccccc1C(=O)c1cnc2cc(O)ccc2c1Oc1cc(C)c(/C=C/C(=O)O)c(C)c1` displayed an IC50 in the experiment with MCF7 [1] of 0.59 µM. The inhibition at 20 µM with Ishikawa stood at 17.3%.
Take `CCc1ccccc1C(=O)c1cnc2cc(O)ccc2c1Oc1c(C)cc(/C=C/C(=O)O)cc1C`: the inhibition at 20 µM in the experiment on Ishikawa was 11.5%.
`COc1ccc(C(=O)c2cnc3cc(O)ccc3c2Oc2ccc(/C=C/C(=O)O)cc2)cc1` yielded an IC50 with MCF7 [1] of 3.09 µM. The inhibition at 20 µM with Ishikawa stood at 61.2%.
For `Cc1ccc(C(=O)c2cnc3cc(O)ccc3c2Oc2ccc(/C=C/C(=O)O)cc2)c(C)c1` the same measures were 0.45 µM and -0.04%.
In the same order, the values of `CCc1ccccc1C(=O)c1cnc2cc(O)ccc2c1Oc1ccc(/C=C/C(=O)O)cc1F` are 0.67 µM and 4.11%.
For `Cc1cc(F)ccc1C(=O)c1cnc2cc(O)ccc2c1Oc1ccc(/C=C/C(=O)O)cc1` the same measures were 0.42 µM and 15.1%.

(Values after ChEMBL document CHEMBL5584239, “Discovery of novel quinoline scaffold selective estrogen receptor degraders (SERDs) for treatment of ER positive breast cancer with enhanced antiproliferative bioactivity through immunogenic cell death (ICD) effects” (Eur J Med Chem, 2024).)
